# Assay results from patent US9725490B2, “ERAP1-derived peptide and use thereof” (TOKUSHIMA UNIVERSITY, priority 2011, dated 2017).
# Tests used:
# [1] = system: pS2, cyclin D1, c-Myc, SP-1, E2F1, PgR; assay: Quantitative RT-PCR of ERα target genes, MCF-7; format: cell-based, human
# KPL-3C tumor [2] = assay: In vivo inhibition of tumor proliferation, concomitant use with tamoxifen, KPL-3C transplant; design: species or system BALB/c nude mouse; conditions: intraperitoneal every day, day 14
# Text: FIG. 18 is a diagram illustrating the influence of concomitant use of the ERAP1-peptide and tamoxifen on tumor proliferation in a human breast cancer-transplanted mouse. KPL-3 cells were subcutaneously transplanted into the breast fat body of a BALB/c nude mouse. The treatment test individuals/group) was initiated (day 0) when the volume of the tumor reached about 50-80 mm^3 in the absence E2.
# KPL-3 cells were subcutaneously transplanted into the breast fat body of a BALB/c nude mouse. When the volume of the tumor reached about 50-80 mm^3 in the absence of E2, the treatment test (5 individuals/group) was initiated (day 0). KPL-3C tumor heterotransplant-carrying mouse was administered with the ERAP1-peptide alone (3.5, 7 and 14 mg/kg), the scramble peptide alone (14 mg/kg), tamoxifen alone (4 mg/kg) or a combination of the ERAP1-peptide (14 mg/kg) and tamoxifen (4 mg/kg) every day by intraperitoneal injection.
# KPL-3C tumor [3] = assay: Inhibition of tumor proliferation in vivo, KPL-3C orthotopic transplant; design: species or system BALB/c nude mouse; conditions: for Ser39 phosphorylation of PHB2/REA in the tumor: 14 mg/kg; for antitumor effect (tumor volume): E2 6 μg/day, 2 weeks
# Description: FIG. 11-1 is a diagram illustrating that the ERAP1-peptide inhibits tumor proliferation in a mouse orthotopically transplanted with human breast cancer. (A) and (B) show the influence of the ERAP1-peptide on the tumor volume. […] were subcutaneously transplanted into the breast fat body of as BALB/c nude mouse. The treatment test (5 individuals/group) was initiated (day 0) when the volume of the tumor in the absence E2 reached about 50-80 mm^3. The ERAP1-peptide (14, 35 and 70 mg/kg), the scramble peptide (14, 35 and 70 mg/kg) or tamoxifen (4 mg/kg) was administered every day by intraperitoneal injection to a cancerous mouse orthotopically transplanted with KPL-3C tumor. At the same time, E2 (6 μg/day) was administered subcutaneously every day.
# FIG. 11-3 is a diagram illustrating that the ERAP1-peptide inhibits tumor proliferation in a mouse orthotopically transplanted with human breast cancer. […] The mouse was euthanatized on day 14, and the tumor was removed, and the expression level of the downstream genes in each tumor was obtained by quantitative RT-PCR.
# FIG. 11-4 is a diagram illustrating that the ERAP1-peptide inhibits tumor proliferation in a mouse orthotopically transplanted with human breast cancer.
# FIG. 27 is a diagram illustrating the inhibition effect of the ERAP1-peptide on tumor proliferation in a mouse orthotopically transplanted with human breast cancer. […] KPL-3 cells were subcutaneously transplanted into the breast fat body of a BALB/c nude mouse. The treatment test (5 individuals/group) was initiated (day 0) when the volume of the tumor reached about 50-80 mm^3 in the absence of E2. To a cancerous mouse orthotopically transplanted with KPL-3C tumor, the ERAP1-peptide (Peptide: 14 mg/kg) or the ERAP1-scramble peptide (scrPeptide: 14 mg/kg) was administered every day by intraperitoneal injection. At the same time, E2 (6 μg/day) was administered subcutaneously every day. On day 14, the mouse was euthanatized, and the tumor was removed, and phosphorylation of PHB2/REA (S39) in each tumor was evaluated with immunoblotting analysis. […] The tamoxifen-resistant MCF7-cells (Tam-R MCF-7) were subcutaneously transplanted into the breast fat body of a BALB/c nude mouse, and the treatment test (5 individuals/group) was initiated (day 0) when the volume of the tumor reached about 50-80 mm^3 in the presence of tamoxifen (37 ng/day, 1.85 μg/kg). To a cancerous mouse orthotopically transplanted with Tam-R MCF-7 tumor, the ERAP1-peptide (Peptide: 3.5, 7 and 14 mg/kg) or the ERAP1-scramble peptide (scrPeptide: 14 mg/kg) was administered every day by intraperitoneal injection. At the same time, E2 (6 μg/day) was administered subcutaneously every day: Tam-R MCF-7 heterotransplanted tumor at day 21 and the mean tumor volume±SE (n=5) are shown. *P<0.05, **P<0.01, ***P<0.001.
# KPL-3C cell suspension (1×10^7 cells/mouse) was mixed with the same amount of Matrigel (BD). This mixture was injected into the breast fat body of 6 weeks old female BALB/c nude mouse (CLEA Japan, Tokyo, Japan). The mouse was kept in a sterile isolated facility with a cycle of 12 hour light period/12 hour dark period, and freely fed with rodent food and water. The tumor was grown over 1 week until the size thereof reached 50 to 80 mm^3 (calculated as ½×(width×length^2)). Then, the mice were randomly divided into nine treatment groups (5 individuals/group): no treatment group, 6 μg/day E2 treatment group, E2+0.28 mg/day ERAP1-peptide treatment group, E2+0.7 mg/day ERAP1-peptide treatment group, E2+1.4 mg/day ERAP1-peptide treatment group, E2+0.28 mg/day of the scramble peptide treatment group, E2+0.7 mg/day of the scramble peptide treatment group, E2+1.4 mg/day of the scramble peptide treatment group, and E2+83 μg/day tamoxifen treatment group. The mouse was treated every day with 6 μg/day E2 solution (100 μl 2.2×10^−4 M) on the neck skin. […]
# [4] = 14, 35, 70 mg/kg intraperitoneal every day
compound,measurement,setting,value
CSCC[C@H](NC(=O)[C@H](CCC(N)=O)NC(=O)[C@H](CCCNC(=N)N)NC(=O)[C@H](CCCNC(=N)N)NC(=O)[C@H](CCCNC(=N)N)NC(=O)[C@H](CCCNC(=N)N)NC(=O)[C@H](CCCNC(=N)N)NC(=O)[C@H](CCCNC(=N)N)NC(=O)[C@H](CCCNC(=N)N)NC(=O)[C@H](CCCNC(=N)N)NC(=O)[C@H](CCCNC(=N)N)NC(=O)[C@H](CCCNC(=N)N)NC(=O)[C@@H](N)CCCNC(=N)N)C(=O)N[C@@H](CC(C)C)C(=O)N[C@@H](CO)C(=O)N[C@@H](CC(=O)O)C(=O)N[C@@H](CC(C)C)C(=O)N[C@H](C(=O)N[C@@H](CC(C)C)C(=O)N[C@@H](CCC(N)=O)C(=O)N[C@@H](CC(C)C)C(=O)N[C@@H](CCCNC(=N)N)C(=O)N[C@@H](CCC(N)=O)C(=O)N[C@@H](CCCNC(=N)N)C(=O)O)[C@@H](C)O [ERAP1-peptide],expression of ERα target genes,[1]; after 24 hours,expression of any of the genes was remarkably suppressed
same,time at which significant expression suppression effect was first recognized,[1]; after addition of the peptide,6 h
same,antitumor effect (tumor volume),KPL-3C tumor [2],"dose-dependent (3.5, 7 and 14 mg/kg) antitumor effect"
same,Ser39 phosphorylation of PHB2/REA in the tumor,KPL-3C tumor [3]; tumor removed day 14,phosphorylation of Ser39 of PHB21/REA was confirmed
same,change of the body weight,KPL-3C tumor [3]; [4],change of the body weight was not recognized
same,antitumor effect (tumor volume),KPL-3C tumor [3]; [4],the antitumor effect was recognized
same,"expressions of ERα target genes PS2, cyclin D1, C-Myc, SP-1 in the tumor",KPL-3C tumor [3]; tumor removed day 14,completely suppressed
same,phosphorylations of Akt and MAPK in the tumor,KPL-3C tumor [3]; tumor removed day 14,"suppression for the phosphorylations of the non-genomic activation signal routes, i.e., Akt and MAPK, was also confirmed"
DRQLQLSTLQRML (SEQ ID NO: 28) (ERAP1-scramble peptide) [reference compound],antitumor effect (tumor volume),KPL-3C tumor [2],the effect was not recognized
same,Ser39 phosphorylation of PHB2/REA in the tumor,KPL-3C tumor [3]; tumor removed day 14,the phosphorylation of PHB2/REA was not recognized
same,antitumor effect (tumor volume),KPL-3C tumor [3]; [4],significant tumor suppression effect was not recognized in any of the doses
same,"expressions of ERα target genes PS2, cyclin D1, C-Myc, SP-1 in the tumor",KPL-3C tumor [3]; tumor removed day 14,suppression for the expression was not recognized
